Molecular target: S1P1/EDG1 (Homo sapiens, UniProt P21453)
Test: S1P1 CRE-bla CHOK1 reporter assay, inhibition of Forskolin induced cAMP
Type: cell-based
Conditions: agonist activity range, S1P1 CRE-bla CHOK1, 2 μM Forskolin; read-out: S1P1 ACTIVITY
Method: Generation of S1P1-Mediated Inhibition of cAMP Reporter Assay
A mammalian expression plasmid containing S1P1/EDG1 cloned into pcDNA3.1 was purchased from Missouri S&T cDNA Resource Centre. […] S1P1/pcDNA3.1 was transfected into the CRE-bla CHO K1 (Invitrogen) cell line, and stable single cell clones were selected using standard techniques.
S1P1 CRE-Bla CHOK1 Reporter Assay—Characterization of S1P1 Agonists
Cells were seeded into 384-well black wall/clear bottom plates at 10^4 cells/well/19.5 μl assay media (DMEM-phenol free, 0.5% charcoal/dextran stripped serum, 2 mM glutamine, 0.1 mM NEAA, 1 mM Na-Pyruvate, 25 mM Hepes) and incubated for 18 hrs at 37° C. in 5% CO2. Dose response curves (10-point) were generated in 10 mM Hepes, 0.1% Pluronic F127, in the presence of Forskolin. Cells were treated with 0.5 μl compound in the presence of 2 μM Forskolin for 4 hrs at 37° C. The FRET-based β-lactamase fluorescent substrate (LiveBLAzer™-FRET B/G Loading Kit CC4-AM; Invitrogen) was prepared according to manufacturer's directions, and incubated with cells for 2 hrs at room temperature. […] Data was analyzed by non-linear regression to determine the EC50 for inhibition of Forskolin induced cAMP.

Chain of S1P1/EDG1 (P21453 whole entry): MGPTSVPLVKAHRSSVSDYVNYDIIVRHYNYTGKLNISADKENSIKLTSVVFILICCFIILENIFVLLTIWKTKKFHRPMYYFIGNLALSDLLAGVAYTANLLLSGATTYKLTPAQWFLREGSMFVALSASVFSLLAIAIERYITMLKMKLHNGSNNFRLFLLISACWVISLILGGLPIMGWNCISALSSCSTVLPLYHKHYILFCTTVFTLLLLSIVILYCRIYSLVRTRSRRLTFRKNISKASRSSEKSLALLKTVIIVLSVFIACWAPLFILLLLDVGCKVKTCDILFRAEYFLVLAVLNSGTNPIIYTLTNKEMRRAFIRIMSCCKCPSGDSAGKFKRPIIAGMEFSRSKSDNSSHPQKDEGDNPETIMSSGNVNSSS

Row | Compound | EC50 [nM]
1 | CCN[C@H]1CCc2c(-c3noc(-c4ccc(OC(C)C)c(C#N)c4)n3)cccc21 [Compound 107] | 0.05 to 0.5
2 | CC(C)Oc1ccc(-c2nc(-c3cccc4c3CC[C@@H]4N(C)C(=O)CO)no2)cc1C#N [Compound 110] | 0.05 to 0.5
3 | CC(C)Oc1ccc(-c2nc(-c3cccc4c3CC[C@H]4N(CCO)S(C)(=O)=O)no2)cc1C#N [Compound 112, (R)-N-(4-(5-(3 cyano-4-isopropoxyphenyl)-1,2,4-oxadiazol-3-yl)-2,3-dihydro-1H-inden-1-yl)-N-(2-hydroxyethyl)methanesulfonamide] | 0.5 to 5
4 | CC(=O)N(CCO)[C@@H]1CCc2c(-c3noc(-c4ccc(OC(C)C)c(C#N)c4)n3)cccc21 [Compound 113] | 0.5 to 5
5 | CCN(CCO)[C@@H]1CCc2c(-c3noc(-c4ccc(OC(C)C)c(C#N)c4)n3)cccc21 [Compound 114] | 0.05 to 0.5
6 | CC(C)Oc1ccc(-c2nc(-c3cccc4c3CC[C@H]4N(C)CC(=O)N(C)C)no2)cc1C#N [Compound 115] | 0.5 to 5
7 | CCN(CC(=O)N(C)C)[C@@H]1CCc2c(-c3noc(-c4ccc(OC(C)C)c(C#N)c4)n3)cccc21 [Compound 116] | 0.5 to 5
8 | CC(C)Oc1ccc(-c2nc(-c3cccc4c3CC[C@H]4N(CCO)S(=O)(=O)c3ccccc3)no2)cc1C#N [Compound 117] | > 5
9 | CC(C)Oc1ccc(-c2nc(-c3cccc4c3CC[C@H]4N(CCO)CCO)no2)cc1C#N [Compound 118] | 0.05 to 0.5
10 | CC(C)Oc1ccc(-c2nc(-c3cccc4c3CC[C@@H]4NC[C@@H](O)[C@H](O)[C@H](O)CO)no2)cc1C#N [Compound 119, 2-isopropoxy-5-(3-((S)-1-(((2R,3S,4R)-2,3,4,5-tetrahydroxypentyl)amino)-2,3-dihydro-1H-inden-4-yl)-1,2,4-oxadiazol-5-yl)benzonitrile] | 0.5 to 5
11 | CC(C)Oc1ccc(-c2nc(-c3cccc4c3CC[C@@H]4NCC(=O)N(C)C)no2)cc1C(N)=O [Compound 121] | > 5
12 | CC(C)Oc1ccc(-c2nc(-c3cccc4c3CC[C@H]4NCCF)no2)cc1C#N [Compound 124, (R)-5-(3-(1-((2-fluoroethyl)amino)-2,3-dihydro-1H-inden-4-yl)-1,2,4-oxadiazol-5-yl)-2-isopropoxybenzonitrile] | 0.05 to 0.5
13 | CC(C)Oc1ccc(-c2nc(-c3cccc4c3CC[C@H]4NCCS(C)(=O)=O)no2)cc1C#N [Compound 125, (R)-2-isopropoxy-5-(3-(1-((2-(methylsulfonyl)ethyl)amino)-2,3-dihydro-1H-inden-4-yl)-1,2,4-oxadiazol-5-yl)benzonitrile] | 0.05 to 0.5
14 | CC(C)Oc1ccc(-c2nc(-c3cccc4c3CC[C@@H]4NCCS(C)(=O)=O)no2)cc1C#N [Compound 126] | 0.05 to 0.5
15 | CC(C)Oc1ccc(-c2nc(-c3cccc4c3CC[C@H]4NCC(=O)N3CC3)no2)cc1C#N [Compound 127] | 0.5 to 5
16 | CC(C)Oc1ccc(-c2nc(-c3cccc4c3CC[C@H]4NCC(=O)N3CCC3)no2)cc1C#N [Compound 128] | 0.05 to 0.5
17 | CC(C)Oc1ccc(-c2nc(-c3cccc4c3CC[C@H]4NCC(=O)N3CCCC3)no2)cc1C#N [Compound 129] | 0.05 to 0.5
18 | CC(C)Oc1ccc(-c2nc(-c3cccc4c3CC[C@H]4NCC(=O)N3CCCCC3)no2)cc1C#N [Compound 130] | 0.5 to 5
19 | CC(C)Oc1ccc(-c2nc(-c3cccc4c3CC[C@H]4NCC(=O)N3CCNCC3)no2)cc1C#N [Compound 131] | > 5

Row | Compound | EC50 [nM]
20 | CC(C)Oc1ccc(-c2nc(-c3cccc4c3CC[C@H]4NCC(=O)N3CCN(C)CC3)no2)cc1C#N [Compound 132] | 0.5 to 5
21 | CC(C)Oc1ccc(-c2nc(-c3cccc4c3CC[C@H]4NCC(=O)N3CC[C@@H](O)C3)no2)cc1C#N [Compound 133] | 0.05 to 0.5
22 | CC(C)Oc1ccc(-c2nc(-c3cccc4c3CC[C@H]4NCC(=O)N3CC[C@H](O)C3)no2)cc1C#N [Compound 134] | 0.05 to 0.5
23 | CC(C)Oc1ccc(-c2nc(-c3cccc4c3CC[C@H]4NCC(=O)NCCO)no2)cc1C#N [Compound 135] | 0.05 to 0.5
24 | CC(C)Oc1ccc(-c2nc(-c3cccc4c3CC[C@@H]4NC(=O)CN(C)C)no2)cc1C#N [Compound 136] | 0.05 to 0.5
25 | CC(C)Oc1ccc(-c2nc(-c3cccc4c3CC[C@@H]4NC(=O)CO)no2)cc1C#N [Compound 137] | < 0.05
26 | CC(=O)N[C@@H]1CCc2c(-c3noc(-c4ccc(OC(C)C)c(C#N)c4)n3)cccc21 [Compound 138, (R)-N-(4-(5-(3-cyano-4-isopropoxyphenyl)-1,2,4-oxadiazol-3-yl)-2,3-dihydro-1H-inden-1-yl)acetamide] | < 0.05
27 | CC(=O)N[C@H]1CCc2c(-c3noc(-c4ccc(OC(C)C)c(C#N)c4)n3)cccc21 [Compound 139, (S)-N-(4-(5-(3 cyano-4-isopropoxyphenyl)-1,2,4-oxadiazol-3-yl)-2,3-dihydro-1H-inden-1-yl)acetamide] | 0.05 to 0.5
28 | CC(C)Oc1ccc(-c2nc(-c3cccc4c3CC[C@H]4NCC(F)F)no2)cc1C#N [Compound 140] | 0.5 to 5
29 | CC(C)Oc1ccc(-c2nc(-c3cccc4c3CC[C@@H]4NCC(F)F)no2)cc1C#N [Compound 141] | 0.05 to 0.5
30 | CC(C)Oc1ccc(-c2nc(-c3cccc4c3CC[C@@H]4NCCF)no2)cc1C#N [Compound 142] | 0.05 to 0.5
31 | CN[C@@H]1CCc2c(-c3noc(-c4ccc(OC(C)C)c(C#N)c4)n3)cccc21 [Compound 143] | 0.05 to 0.5
32 | CCCN[C@H]1CCc2c(-c3noc(-c4ccc(OC(C)C)c(C#N)c4)n3)cccc21 [Compound 144] | 0.05 to 0.5
33 | COC(=O)CCCN[C@H]1CCc2c(-c3noc(-c4ccc(OC(C)C)c(C#N)c4)n3)cccc21 [Compound 145] | < 0.05
34 | CC(C)Oc1ccc(-c2nc(-c3cccc4c3CC[C@@H]4NCCCC(=O)O)no2)cc1C#N [Compound 146] | < 0.05
35 | CC(C)Oc1ccc(-c2nc(-c3cccc4c3CC[C@@H]4NCCCCC(=O)O)no2)cc1C#N [Compound 148] | < 0.05
36 | COC(=O)N[C@@H]1CCc2c(-c3noc(-c4ccc(OC(C)C)c(C#N)c4)n3)cccc21 [Compound 149, (R)-methyl (4-(5-(3-cyano-4-isopropoxyphenyl)-1,2,4-oxadiazol-3-yl)-2,3-dihydro-1H-inden-1-yl)carbamate] | 0.05 to 0.5
37 | COC(=O)N[C@H]1CCc2c(-c3noc(-c4ccc(OC(C)C)c(C#N)c4)n3)cccc21 [Compound 150] | 0.05 to 0.5
38 | CCOC(=O)N[C@@H]1CCc2c(-c3noc(-c4ccc(OC(C)C)c(C#N)c4)n3)cccc21 [Compound 151] | 0.5 to 5

Row | Compound | EC50 [nM]
39 | CCOC(=O)N[C@H]1CCc2c(-c3noc(-c4ccc(OC(C)C)c(C#N)c4)n3)cccc21 [Compound 152] | 0.5 to 5
40 | CC(C)Oc1ccc(-c2nc(-c3cccc4c3CC[C@@H]4NC(=O)OCCO)no2)cc1C#N [Compound 153] | 0.05 to 0.5
41 | CC(C)Oc1ccc(-c2nc(-c3cccc4c3CC[C@H]4N3CCOC3=O)no2)cc1C#N [Compound 154, (R)-2-isopropoxy-5-(3-(1-(2-oxooxazolidin-3-yl)-2,3-dihydro-1H-inden-4-yl)-1,2,4-oxadiazol-5-yl)benzonitrile] | 0.05 to 0.5
42 | CC(C)Oc1ccc(-c2nc(-c3cccc4c3CC[C@@H]4N3CCOC3=O)no2)cc1C#N [Compound 155] | 0.05 to 0.5
43 | CC(C)Oc1ccc(-c2nc(-c3cccc4c3CC[C@H]4NCc3ccccc3)no2)cc1C#N [Compound 156] | 0.5 to 5
44 | CC(C)Oc1ccc(-c2nc(-c3cccc4c3CC[C@@H]4NCc3ccccc3)no2)cc1C#N [Compound 157] | 0.5 to 5
45 | Cc1c[nH]c(CN[C@H]2CCc3c(-c4noc(-c5ccc(OC(C)C)c(C#N)c5)n4)cccc32)n1 [Compound 159] | 0.5 to 5
46 | CC(C)Oc1ccc(-c2nc(-c3cccc4c3CC[C@@H]4NCc3nc4ccccc4[nH]3)no2)cc1C#N [Compound 160] | 0.5 to 5
47 | CC(C)Oc1ccc(-c2nc(-c3cccc4c3CC[C@@H]4NCc3cncs3)no2)cc1C#N [Compound 161] | 0.05 to 0.5
48 | Cc1cc(CN[C@H]2CCc3c(-c4noc(-c5ccc(OC(C)C)c(C#N)c5)n4)cccc32)[nH]n1 [Compound 162] | 0.5 to 5
49 | CCOCCS(=O)(=O)N[C@@H]1CCc2c(-c3noc(-c4ccc(OC(C)C)c(C#N)c4)n3)cccc21 [Compound 165] | 0.05 to 0.5
50 | CC(C)Oc1ccc(-c2nc(-c3cccc4c3CC[C@H]4NS(=O)(=O)C3CC3)no2)cc1C#N [Compound 166] | 0.05 to 0.5
51 | CC(C)Oc1ccc(-c2nc(-c3cccc4c3CC[C@@H]4NS(=O)(=O)C3CC3)no2)cc1C#N [Compound 167] | 0.05 to 0.5
52 | CC(C)Oc1ccc(-c2nc(-c3cccc4c3CC[C@@H]4NS(=O)(=O)CCC3CCC3)no2)cc1C#N [Compound 168] | 0.05 to 0.5
53 | CC(C)Oc1ccc(-c2nc(-c3cccc4c3CC[C@@H]4NS(=O)(=O)CCN3CCC3)no2)cc1C#N [Compound 169] | 0.5 to 5
54 | CC(C)Oc1ccc(-c2nc(-c3cccc4c3CC[C@H]4NS(=O)(=O)CCN3CCCC3)no2)cc1C#N [Compound 170] | 0.5 to 5
55 | CC(C)Oc1ccc(-c2nc(-c3cccc4c3CC[C@H]4NS(=O)(=O)CCN3CC[C@@H](O)C3)no2)cc1C#N [Compound 171] | 0.05 to 0.5
56 | CC(C)Oc1ccc(-c2nc(-c3cccc4c3CC[C@H]4NS(=O)(=O)CCN3CC[C@H](O)C3)no2)cc1C#N [Compound 172] | 0.5 to 5
57 | CC(C)Oc1ccc(-c2nc(-c3cccc4c3CC[C@@H]4NS(=O)(=O)CCN3CC[C@@H](O)C3)no2)cc1C#N [Compound 173] | 0.5 to 5

From patent publication US9388147B2 (Receptos, Inc., priority 2009, dated 2016)
